Source: the NIST ThermoML archive (doi:10.1016/j.tca.2014.07.022)
Numbers after ± are expanded uncertainties.

Experiments:
[1] = xn = mol fraction of the nth substance listed; details: 100 kPa, Liquid; for viscosity: Concentric cylinders viscometry; for mass density: Vibrating tube method
[2] = 100 kPa, Liquid; for viscosity: Concentric cylinders viscometry; for mass density: Vibrating tube method

Row | SMILES | viscosity ([2]; 293.15 K) | mass density ([2]; 293.15 K) | viscosity ([2]; 298.15 K) | mass density ([2]; 298.15 K) | viscosity ([2]; 303.15 K) | mass density ([2]; 303.15 K) | viscosity ([2]; 308.15 K) | mass density ([2]; 308.15 K) | viscosity ([2]; 313.15 K) | mass density ([2]; 313.15 K) | viscosity ([2]; 318.15 K) | mass density ([2]; 318.15 K) | viscosity ([2]; 323.15 K) | mass density ([2]; 323.15 K) | also measured
1 | CCC(C)O (stereo not drawn) [butan-2-ol] + CC(=O)CC(C)C |  |  |  |  |  |  |  |  |  |  |  |  |  |  | viscosity ([1]; 293.15 K, x2 = 0): 3.67 ± 0.077 mPa·s; mass density ([1]; 293.15 K, x2 = 0): 806.7 ± 0.3 kg/m3; viscosity ([1]; 298.15 K, x2 = 0): 3.04 ± 0.064 mPa·s; mass density ([1]; 298.15 K, x2 = 0): 802.7 ± 0.3 kg/m3; viscosity ([1]; 303.15 K, x2 = 0): 2.54 ± 0.053 mPa·s; mass density ([1]; 303.15 K, x2 = 0): 798.4 ± 0.3 kg/m3; viscosity ([1]; 308.15 K, x2 = 0): 2.128 ± 0.045 mPa·s; mass density ([1]; 308.15 K, x2 = 0): 794.1 ± 0.3 kg/m3; viscosity ([1]; 313.15 K, x2 = 0): 1.805 ± 0.038 mPa·s; mass density ([1]; 313.15 K, x2 = 0): 789.8 ± 0.3 kg/m3; viscosity ([1]; 318.15 K, x2 = 0): 1.538 ± 0.033 mPa·s; mass density ([1]; 318.15 K, x2 = 0): 785.2 ± 0.3 kg/m3; viscosity ([1]; 323.15 K, x2 = 0): 1.325 ± 0.028 mPa·s; mass density ([1]; 323.15 K, x2 = 0): 780.6 ± 0.3 kg/m3
2 | CC(C)O [propan-2-ol] + CC(=O)CC(C)C |  |  |  |  |  |  |  |  |  |  |  |  |  |  | viscosity ([1]; 293.15 K, x2 = 0): 2.417 ± 0.051 mPa·s; mass density ([1]; 293.15 K, x2 = 0): 785.4 ± 0.3 kg/m3; viscosity ([1]; 298.15 K, x2 = 0): 2.083 ± 0.044 mPa·s; mass density ([1]; 298.15 K, x2 = 0): 781.1 ± 0.3 kg/m3; viscosity ([1]; 303.15 K, x2 = 0): 1.8 ± 0.038 mPa·s; mass density ([1]; 303.15 K, x2 = 0): 776.8 ± 0.3 kg/m3; viscosity ([1]; 308.15 K, x2 = 0): 1.561 ± 0.033 mPa·s; mass density ([1]; 308.15 K, x2 = 0): 772.4 ± 0.3 kg/m3; viscosity ([1]; 313.15 K, x2 = 0): 1.359 ± 0.029 mPa·s; mass density ([1]; 313.15 K, x2 = 0): 768 ± 0.3 kg/m3; viscosity ([1]; 318.15 K, x2 = 0): 1.189 ± 0.025 mPa·s; mass density ([1]; 318.15 K, x2 = 0): 763.4 ± 0.3 kg/m3; viscosity ([1]; 323.15 K, x2 = 0): 1.047 ± 0.023 mPa·s; mass density ([1]; 323.15 K, x2 = 0): 758.8 ± 0.3 kg/m3
3 | CCCC(C)O (stereo not drawn) [pentan-2-ol] | 3.974 ± 0.083 mPa·s | 809.3 ± 0.3 kg/m3 | 3.277 ± 0.069 mPa·s | 805.3 ± 0.3 kg/m3 | 2.717 ± 0.057 mPa·s | 801.2 ± 0.3 kg/m3 | 2.282 ± 0.048 mPa·s | 797 ± 0.3 kg/m3 | 1.931 ± 0.041 mPa·s | 792.7 ± 0.3 kg/m3 | 1.647 ± 0.035 mPa·s | 788.4 ± 0.3 kg/m3 | 1.419 ± 0.03 mPa·s | 784 ± 0.3 kg/m3 | 
4 | CCC(C)O (stereo not drawn) [butan-2-ol] | 3.67 ± 0.077 mPa·s | 806.7 ± 0.3 kg/m3 | 3.04 ± 0.064 mPa·s | 802.7 ± 0.3 kg/m3 | 2.54 ± 0.053 mPa·s | 798.4 ± 0.3 kg/m3 | 2.128 ± 0.045 mPa·s | 794.1 ± 0.3 kg/m3 | 1.805 ± 0.038 mPa·s | 789.8 ± 0.3 kg/m3 | 1.538 ± 0.033 mPa·s | 785.2 ± 0.3 kg/m3 | 1.325 ± 0.028 mPa·s | 780.6 ± 0.3 kg/m3 | 
5 | CC(C)O [propan-2-ol] | 2.417 ± 0.051 mPa·s | 785.4 ± 0.3 kg/m3 | 2.083 ± 0.044 mPa·s | 781.1 ± 0.3 kg/m3 | 1.8 ± 0.038 mPa·s | 776.8 ± 0.3 kg/m3 | 1.561 ± 0.033 mPa·s | 772.4 ± 0.3 kg/m3 | 1.359 ± 0.029 mPa·s | 768 ± 0.3 kg/m3 | 1.189 ± 0.025 mPa·s | 763.4 ± 0.3 kg/m3 | 1.047 ± 0.023 mPa·s | 758.8 ± 0.3 kg/m3 | 
6 | CC(=O)CC(C)C [4-methylpentan-2-one] | 0.588 ± 0.013 mPa·s | 800.8 ± 0.3 kg/m3 | 0.554 ± 0.013 mPa·s | 796.1 ± 0.3 kg/m3 | 0.523 ± 0.012 mPa·s | 791.6 ± 0.3 kg/m3 | 0.493 ± 0.011 mPa·s | 786.9 ± 0.3 kg/m3 | 0.463 ± 0.011 mPa·s | 782.3 ± 0.3 kg/m3 | 0.437 ± 0.01 mPa·s | 777.6 ± 0.3 kg/m3 | 0.41 ± 0.01 mPa·s | 773 ± 0.3 kg/m3 | 
7 | CC(=O)CC(C)C [4-methylpentan-2-one] + CCCC(C)O |  |  |  |  |  |  |  |  |  |  |  |  |  |  | viscosity ([1]; 293.15 K, x1 = 1): 0.588 ± 0.013 mPa·s; mass density ([1]; 293.15 K, x1 = 1): 800.8 ± 0.3 kg/m3; viscosity ([1]; 298.15 K, x1 = 1): 0.554 ± 0.013 mPa·s; mass density ([1]; 298.15 K, x1 = 1): 796.1 ± 0.3 kg/m3; viscosity ([1]; 303.15 K, x1 = 1): 0.523 ± 0.012 mPa·s; mass density ([1]; 303.15 K, x1 = 1): 791.6 ± 0.3 kg/m3; viscosity ([1]; 308.15 K, x1 = 1): 0.493 ± 0.011 mPa·s; mass density ([1]; 308.15 K, x1 = 1): 786.9 ± 0.3 kg/m3; viscosity ([1]; 313.15 K, x1 = 1): 0.463 ± 0.011 mPa·s; mass density ([1]; 313.15 K, x1 = 1): 782.3 ± 0.3 kg/m3; viscosity ([1]; 318.15 K, x1 = 1): 0.437 ± 0.01 mPa·s; mass density ([1]; 318.15 K, x1 = 1): 777.6 ± 0.3 kg/m3; viscosity ([1]; 323.15 K, x1 = 1): 0.41 ± 0.01 mPa·s; mass density ([1]; 323.15 K, x1 = 1): 773 ± 0.3 kg/m3
